In US9399038B2, “Benzothiophene compound” (ASTELLAS PHARMA INC., priority 2013, dated 2016):
Structures can show the parent of a compound that is named as a salt.

How the values were obtained:
IK1 channel [1] = biological target: T1, IK1 channel (Homo sapiens, UniProt O15554); test: IK1 channel opening activity measurement test (membrane potential, human IK1 channel expressing CHO dhfr- cells); type: cell-based; set-up: expressed in transfected cells; host or cells: CHO dhfr- cells; conditions: NS-309 0.2 μM = 100%, DMSO = 0%, read-out: EC50 of IK1 channel opening action
Experimental: (§1) Cells ((1) T84 cells (which is known as IK1 channel expressing cells) or (2) human IK1 channel expressing cells (transgene: NM_002250.2, use cells: CHO dhfr-)) were seeded in a 384-well microplate so as to be 12000 cells/well. After incubation overnight, a medium was suctioned, and 20 μL of FLIPR Membrane Potential Assay Reagent (FLIPR Membrane Potential Assay kit, manufactured by Molecular Devices LLC) was added to the medium, followed by incubation at room temperature for 1 hour. Fluorescence intensity was measured at 530 nm/590 nm, which was set as a pre value. 20 μL of a buffer solution containing a test drug (which contains 0.01% pluronic acid and 20 mM Hepes-NaOH (pH7.4); 0.2% CHAPS in HBSS) was added, followed by incubation at room temperature for 1 hour, and a post value was measured. Activity of the test drug was determined from relative values where NS-309 (6,7-dichloro-1H-indole-2,3-dione 3-oxime, manufactured by Sigma-Aldrich Co., LLC; 0.2 μM; DMSO solution) treatment was set as 100%, and DMSO treatment was set as 0%. Activity value (%) at each concentration was plotted against a concentration of the test drug, and EC50 value was calculated by a Logistic regression method.
(§2) The EC50 values of an IK1 channel opening action of the several representative Example compounds of the invention are shown in the following Table (in the Table, No. means a number, and Ex means an Example compound number. The same shall apply hereinafter.). […] With P<0.05 in each assay, it was determined that there was a significant difference.

IK1 channel [2] = biological target: T1, IK1 channel; test: IK1 channel opening activity measurement test (membrane potential, T84 cells); type: cell-based; set-up: T84 cells (which is known as IK1 channel expressing cells); endogenous in cells; host or cells: T84 cells; conditions: NS-309 0.2 μM = 100%, DMSO = 0%, read-out: EC50 of IK1 channel opening action
Experimental: as §1, §2

vagotomized rat = test: Action to tenderness threshold value in vagotomized rat; type: in vivo; conditions: for significance versus solvent group: at the dose shown in Table 6, P<0.05; for Improvement rate (tenderness threshold value): male SD rats, 3 mg/kg oral, after 2 hours, sham = 100%, surgery solvent group = 0%
Experimental: (§3) Moreover, in Test Examples 2 to 6, a 0.5% methyl cellulose suspension was used as a test drug.
The model was made based on Neuroscience, 2009, vol. 164, p. 1252-1262. Male SD rats (provided by Japan SLC, Inc, Japan) were anesthetized with somnopentyl, followed by shaving near a xiphisternum. Incision was performed along the midline from the xiphisternum to the tail side. A stomach and an esophagus under a diaphragm were exposed, and vagus nerves on both sides of the esophagus were transected. Muscle and skin were sutured in order. 1 to 3 weeks after the surgery, a decrease in the tenderness threshold value was confirmed. The solvent or the test drug was orally administered, and after 2 hours, the tenderness threshold value was measured using Randall-Selitto equipment (manufactured by Muromachi Kikai Co., Ltd.) in a gastrocnemius muscle. A significant difference test of a solvent group and a test drug group was performed in comparison between groups using Student's t-test or Dunnett multiple comparison test. With P<0.05 in each assay, it was determined that there was a significant difference.
Effectiveness of several representative Example compounds of the invention is shown in the following Table as an improvement rate when a value of a group in which the solvent was administered into a sham surgery group was set as 100%, and a value of a group in which the solvent was administered into a surgery group was set as 0%.

[3] = system: reserpine-induced myalgia model; test: Effect on tenderness threshold value in reserpine-induced myalgia model; type: in vivo, rat
Experimental: as §3
This model is a model which imitates a fibromyalgia disease. This test was performed based on Pain, 2009, vol. 146, p 26-33. Reserpine (1 mg/kg) was subcutaneously administered into male SD rats (provided by Japan SLC, Inc, Japan) once a day for 3 days. After 5 days, the solvent or the test drug was orally administered. After 2 hours, a tenderness threshold value was measured using Randall-Selitto equipment (manufactured by Muromachi Kikai Co., Ltd.) in a gastrocnemius muscle. A significant difference test of a solvent group and a test drug-administered group was performed in comparison between groups using Student's t-test or Dunnett multiple comparison test. Here, a value obtained by administering the solvent to a normal rat to which reserpine was not administered was set as 100%, and a value of the reserpine group into which the solvent was administered was set as 0%. With P<0.05 in each assay, it was determined that there was a significant difference.

[4] = system: adjuvant-induced arthritis rat; test: Inhibitory effect on hindlimb weight distribution in adjuvant-induced arthritis rat; type: in vivo; conditions: for significance versus solvent group: at the dose shown in Table 4, P<0.05; for MED (minimum effective dose): female Lewis rat, oral, 1 or 2 hours after administration, hindlimb weight distribution
Experimental: as §3
This model is a model to study inflammatory pain. 50 μL of killed Mycobacterium tuberculosis H37Ra (manufactured by DIFCO Laboratories) suspended in a liquid paraffin was subcutaneously administered into a right hindlimb footpad of a female Lewis rat (provided by Charles River Laboratories, Japan) so as to be 10 mg/mL. Next day, the solvent or the test drug was orally administered. After 1 or 2 hours, the weight distribution between the left and the right hindlimbs was measured using an Incapacitance Tester (manufactured by Linton Instrumentation). A significant difference test of a solvent group and a test drug group was performed in comparison between groups using Student's t-test or Dunnett multiple comparison test. With P<0.05 in each assay, it was determined that there was a significant difference.
Effectiveness in the adjuvant-induced arthritis rat test of the several representative Example compounds of the invention is shown in the following Table.

[5] = system: abdominal pain by rat colorectal distension; test: Effect on abdominal pain by rat colorectal distension; type: in vivo; conditions: for MED (minimum effective dose): Wistar male rats, oral, 1 hour after administration, abdominal flexion behavior; for significance versus solvent group: at the dose shown in Table 3, P<0.05
Experimental: as §3
After Wistar male rats (CLEA Japan, Inc.) were anesthetized with isoflurane, a balloon was inserted into the colon. After awakening, the test drug was orally administered, and after 1 hour, abdominal pain induced by balloon expansion was measured as an indicator of an abdominal flexion behavior. Each stimulus (15, 30, 45, 60 mmHg) was repeatedly performed for 5 minutes at 5-minute intervals. A significant difference test of a solvent group and a test drug group was performed in comparison between groups using Student's t-test or Dunnett multiple comparison test. With P<0.05 in each assay, it was determined that there was a significant difference.
Effectiveness in the abdominal pain test by rat colorectal distension of the several representative Example compounds of the invention is shown in the following Table (In the Table, MED means a minimum effective dose. The same shall apply hereinafter.).

[6] = system: monoiodoacetate-induced osteoarthritis model; test: Inhibitory effect on hindlimb weight distribution in monoiodoacetate-induced osteoarthritis model; type: in vivo, rat; conditions: for significance versus solvent group: at the dose shown in Table 5, P<0.05; for Improvement rate: male SD rats, 1 mg/kg oral, 3 weeks after MIA, 1 or 2 hours after administration
Experimental: as §3
This model is a model of osteoarthritis, and action to osteoarthritis pain can be evaluated using the model. This test was performed based on The Journal of Pharmacology and Experimental Therapeutics, 2010, vol. 334, p. 955-963. Under isoflurane anesthesia, 1 mg/site of monoiodoacetate (hereinafter referred to as MIA) (manufactured by Sigma-Aldrich Co., LLC) solution was singly administered into the right knee joint cavity of male SD rats (provided by Charles River Laboratories, Japan). MIA was dissolved in physiological saline, and 50 μL thereof was administered using a 27 gauge×0.5 inches needle. 3 weeks after the MIA administration, the solvent or the test drug was orally administered. After 1 or 2 hours, the weight distribution between the left and the right hindlimb was measured using an Incapacitance Tester (manufactured by Linton Instrumentation). A significant difference test of a solvent group and a test drug group was performed in comparison between groups using Student's t-test or Dunnett multiple comparison test. With P<0.05 in each assay, it was determined that there was a significant difference.
Effectiveness with respect to a monoiodoacetate-induced osteoarthritis model of the several representative Example compounds of the invention is shown in the following Table.

Row | SMILES | EC50 (IK1 channel [1]) | EC50 (IK1 channel [2]) | significance versus solvent group (vagotomized rat) | Improvement rate (tenderness threshold value) (vagotomized rat) | significance versus solvent group ([3]; 1 mg/kg, P<0.05) | Improvement rate (tenderness threshold value) ([3]; male SD rats, 1 mg/kg oral, after 2 hours, normal rat = 100%, reserpine solvent group = 0%) | significance versus solvent group [4] | MED (minimum effective dose) [4] | MED (minimum effective dose) [5] | significance versus solvent group [5] | significance versus solvent group [6] | Improvement rate [6]
1 | Cc1sc2cc(Cl)ccc2c1-c1ccc(N2CCO[C@H](CNC3CCC3)C2)c(C(=O)O)c1 [Ex10, 5-(6-chloro-2-methyl-1-benzothiophen-3-yl)-2-{(2R)-2-[(cyclobutylamino)methyl]morpholin-4-yl}benzoic acid monohydrochloride] | 93 nM | 3890 nM | significant activity | >50% (3 mg/kg) | significant activity | higher than 50% | significant activity | 3 mg/kg | 0.3 mg/kg | significant activity | significant activity | >50% (l mg/kg)
2 | O=C(O)c1cc(-c2c(F)sc3cc(Cl)ccc23)ccc1N1CCO[C@H](CNC2CCC2)C1 [Ex11, 5-(6-chloro-2-fluoro-1-benzothiophen-3-yl)-2-{(2R)-2-[(cyclobutylamino)methyl]morpholin-4-yl}benzoic acid hydrochloride] | 11 nM | 3070 nM | – | – | – | – | significant activity | 3 mg/kg | – | – | significant activity | >50% (l mg/kg)
3 | O=C(O)c1cc(-c2csc3cc(C(F)(F)F)ccc23)ccc1N1CCO[C@H](CNC2CCC2)C1 [Ex12] | 24 nM | 1750 nM | – | – | – | – | – | – | – | – | – | –
4 | Cc1sc2cc(F)ccc2c1-c1ccc(N2CCO[C@H](CNC3CCC3)C2)c(C(=O)O)c1 [Ex13] | 52 nM | 3760 nM | – | – | – | – | – | – | – | – | – | –
5 | CC(C)(C)NC[C@H]1CCCN(c2ccc(-c3csc4cc(C(F)(F)F)ccc34)cc2C(=O)O)C1 [Ex14, 2-{(3R)-3-[(tert-butylamino)methyl]piperidin-1-yl}-5-[6-(trifluoromethyl)-1-benzothiophen-3-yl]benzoic acid hydrochloride] | 28 nM | 3170 nM | significant activity | >50% (3 mg/kg) | – | – | significant activity | 1 mg/kg | – | – | significant activity | 42% (1 mg/kg)
6 | O=C(O)c1cc(-c2csc3cc(C(F)(F)F)c(Cl)cc23)ccc1N1CCO[C@H](CNC2CCC2)C1 [Ex15, 5-[5-chloro-6-(trifluoromethyl)-1-benzothiophen-3-yl]-2-{(2R)-2-[(cyclobutylamino)methyl]morpholin-4-yl}benzoic acid hydrochloride] | – | – | significant activity | >50% (3 mg/kg) | – | – | – | – | – | – | – | –
7 | Cc1sc2cc(Cl)ccc2c1-c1ccc(N2CCO[C@H](CNC(C)(C)C)C2)c(C(=O)O)c1 [Ex16] | 33 nM | 8040 nM | – | – | – | – | – | – | – | – | – | –
8 | Cc1sc2cc(Cl)c(F)cc2c1-c1ccc(N2CCO[C@H](CNC3CCC3)C2)c(C(=O)O)c1 [Ex18, 5-(6-chloro-5-fluoro-2-methyl-1-benzothiophen-3-yl)-2-{(2R)-2-[(cyclobutylamino)methyl]morpholin-4-yl}benzoic acid hydrochloride] | 48 nM | 920 nM | significant activity | >50% (3 mg/kg) | – | – | significant activity | 3 mg/kg | 0.3 mg/kg | significant activity | significant activity | >50% (1 mg/kg)
9 | Cc1sc2cc(Cl)c(F)cc2c1-c1ccc(N2CCO[C@H](CNC(C)(C)C)C2)c(C(=O)O)c1 [Ex19] | 5.5 nM | 1500 nM | – | – | – | – | – | – | – | – | – | –
